This data set is described as follows: RP, Waters ACQUITY UPLC HSS T3, 0.1 mL/min; A: water + 0.01% formic acid; B: acetonitrile + 0.01% formic acid; gradient (min/%B) 0/10 38/45 45/45 55/0 60/0. As to conditions: stereoisomer not certain.
On to `CC12CCC(=O)C=C1CCC1C2CCC2(C)C(O)CCC12` (stereo not drawn) [Testosterone], for which the LC retention time came out at 28.9 min. With `N#CN=C1SCCN1Cc1ccc(Cl)nc1` [Thiacloprid], the LC retention time was determined as 12.2 min. As for `CN1COCN(Cc2cnc(Cl)s2)C1=N[N+](=O)[O-]` [Thiamethoxam], the LC retention time stood at 6.97 min. Regarding `CC(C)(C)C(O)C(Oc1ccc(Cl)cc1)n1cncn1` (stereo not drawn) [Triadimenol], the LC retention time stood at 31.6 min. Take `[O-][n+]1nc(-n2ccnc2)nc2ccc(Cl)cc21` [Triazoxide]: the LC retention time was 16 min.

For `O=C(O)COc1nc(Cl)c(Cl)cc1Cl` [Triclopyr], the LC retention time is 25 min.

With `Oc1cc(Cl)ccc1Oc1ccc(Cl)cc1Cl` [Triclosan], the LC retention time came out at 43.8 min. `COC(=O)c1cccc(C)c1S(=O)(=O)NC(=O)Nc1nc(OCC(F)(F)F)nc(N(C)C)n1` [Triflusulfuron-methyl]: the LC retention time turned out to be 39 min. Take `CCOC(=O)C1CC(=O)C(=C(O)C2CC2)C(=O)C1` (stereo not drawn) [Trinexapac-ethyl]: the LC retention time amounted to 26.5 min. In the case of `CC1(C)CCC(=Cc2ccc(Cl)cc2)C1(O)Cn1cncn1` (stereo not drawn) [Triticonazole], the LC retention time amounted to 33.8 min. Take `COc1nc(NC(=O)NS(=O)(=O)c2ccccc2C(F)(F)F)nc(C(F)(F)F)n1` [Tritosulfuron]: the LC retention time was 35.9 min.

For `NC(Cc1c[nH]c2ccccc12)C(=O)O` (stereo not drawn) [Tryptophan], the LC retention time worked out at 5.4 min. As to `COc1ccc(C(CN(C)C)C2(O)CCCCC2)cc1` (stereo not drawn) [Venlafaxine], the LC retention time came out at 9.84 min.

These data come from the RepoRT retention time repository.
